Data as given in PMC12442245, “Activity Analysis of the P2X Receptor Antagonist PPADS against Signal Transducer and Activator of Transcription Proteins” (Chembiochem, 2025).

Molecular target: T1, STAT5a (Homo sapiens, UniProt P42229)
T1 sequence (P42229 1-794): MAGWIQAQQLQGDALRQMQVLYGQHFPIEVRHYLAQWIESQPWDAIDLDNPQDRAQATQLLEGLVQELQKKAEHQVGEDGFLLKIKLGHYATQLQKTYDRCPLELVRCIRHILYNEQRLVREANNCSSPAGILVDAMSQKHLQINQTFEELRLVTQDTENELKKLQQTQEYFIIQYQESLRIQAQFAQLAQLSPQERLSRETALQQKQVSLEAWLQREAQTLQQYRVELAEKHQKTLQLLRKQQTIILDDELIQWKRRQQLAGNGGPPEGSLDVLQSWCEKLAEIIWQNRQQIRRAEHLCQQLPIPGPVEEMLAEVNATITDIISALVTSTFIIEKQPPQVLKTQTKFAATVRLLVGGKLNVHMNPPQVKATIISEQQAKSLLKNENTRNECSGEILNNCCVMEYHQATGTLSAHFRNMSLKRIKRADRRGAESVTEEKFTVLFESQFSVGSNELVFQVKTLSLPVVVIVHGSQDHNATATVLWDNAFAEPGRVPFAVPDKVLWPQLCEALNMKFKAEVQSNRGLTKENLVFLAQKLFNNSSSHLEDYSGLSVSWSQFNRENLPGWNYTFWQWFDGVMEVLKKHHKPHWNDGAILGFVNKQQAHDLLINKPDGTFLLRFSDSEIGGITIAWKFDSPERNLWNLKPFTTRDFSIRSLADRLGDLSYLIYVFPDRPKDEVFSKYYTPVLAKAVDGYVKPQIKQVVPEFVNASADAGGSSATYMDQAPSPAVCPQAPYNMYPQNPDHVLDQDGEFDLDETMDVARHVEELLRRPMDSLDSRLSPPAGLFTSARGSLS
Test: Competitive fluorescence polarization (FP) assay, STAT5a
Type: binding
Details: no reducing agent, 1 h
From the text: Screening of chemical libraries
Screening of chemical libraries comprising approximately 5000 known bioactive compounds in fluorescence polarization-based assays against phosphorylation-dependent protein-protein interaction domains, including STAT proteins, has been described.[1] PPADS was purchased from Sigma-Aldrich, and iso-PPADS from Bio-Techne.
Fluorescence polarization assays
Competitive fluorescence polarization (FP) assays for STAT1,[2] STAT3,[3] STAT4,[4] STAT5a,[5] STAT5b[6] and STAT6[1] were performed as previously described. Briefly, peptide binding to proteins was analyzed using the following carboxyfluorescein (CF) -labelled pepti des at a concentration of 10 nM: STAT1: 5-CF-GpYDKPHVL-OH, STAT3: 5-CF-GpYLPQTV -NH2, STAT4: 5-CF-GpYLPQNID-OH, STAT5a and STAT5b: 5-CF-GpYLVLDKW-OH, STAT6: 5- […]
CFGp[…]-OH. […] FP was measured using an Infinite F500 plate reader (Tecan) and measurements were converted into percent inhibition according to the binding curve equation. Curves were plotted and best fits calculated using OriginPro […]
Homogenous time-resolved fluorescence (HTRF) assays for STAT3, STAT4, STAT5a and STAT5b were carried out using Cisbio Monoclonal Antibody Anti-6His-Tb Gold as the fluorescence donor (Perkin Elmer) and the corresponding CF-labelled binding peptide as the acceptor. […] The average reading from 3 wells was obtained. […]

Structure (SMILES)	IC50
Cc1nc(/N=N/c2ccc(S(=O)(=O)O)cc2S(=O)(=O)O)c(COP(=O)(O)O)c(C=O)c1O [PPADS, pyridoxalphosphate‐6‐azophenyl‐2',4'‐disulfonic acid]	1.5 ± 0.2 µM
Cc1nc(/N=N/c2cc(S(=O)(=O)O)ccc2S(=O)(=O)O)c(COP(=O)(O)O)c(C=O)c1O [iso‐PPADS]	4.8 ± 0.4 µM
